Measured values taken from the SangsterLogP compilation.

Assay: method code SF-HPLC, from DOI: 10.1002/jps.2600750811, PMID: 3772750
Settings: not given

Structure (SMILES) | logP
CC[C@H](C(=O)OCc1ccccc1)[C@H](COC(=O)c1cccnc1)Cc1cncn1C | 3.05
CC[C@H](C(=O)OCc1ccccc1)[C@H](COC(=O)c1ccccc1)Cc1cncn1C | 4.37
CCC(C(=O)OCc1ccccc1)C(COC(=O)Cc1ccccc1)Cc1cncn1C (stereo unspecified) | 4
CC[C@H](C(=O)OCc1ccc(Cl)cc1)[C@H](COC(=O)c1ccccc1)Cc1cncn1C | 4.9

Same assay, conditions: pH 7.4

Structure (SMILES) | logD
CCCC(=O)OCC(Cc1cncn1C)C(CC)C(=O)OCc1ccccc1 (stereo unspecified) | 3.63
CC[C@H](C(=O)OCc1ccc(C)cc1)[C@H](COC(=O)C(C)(C)C)Cc1cncn1C | 4.4
CCCCCC(=O)OCC(Cc1cncn1C)C(CC)C(=O)OCc1ccccc1 (stereo unspecified) | 4.6
CC[C@H](C(=O)OCc1ccc(C)cc1)[C@H](COC(C)=O)Cc1cncn1C | 3.16
CC[C@H](C(=O)OCc1ccccc1)[C@H](COC(=O)c1cccc(Cl)c1)Cc1cncn1C | 4.93
CCCC(=O)OC[C@H](Cc1cncn1C)[C@H](CC)C(=O)OCc1ccc(C)cc1 | 4.19
CC[C@H](C(=O)OCc1ccc(C)cc1)[C@H](COC(=O)c1ccccc1)Cc1cncn1C | 4.7
